For assay [1], the system named is mice. As to conditions: mouse, in vivo; cited from earlier work.
Assay [2] has as its system 5HT2A sensor. As to conditions: cited from earlier work.
The test system of assay [3] is 5HT2A sensor. As to conditions: cited from earlier work. This is another data set of the same source.
Assay [4] deals with T1, 5-HT2A (Homo sapiens, UniProt P28223). As to the kind of experiment: Serotonin 5-HT2A in vitro cellular IPOne agonism assay (HTRF). It is filed as cell-based. On the set-up: host or cells: CHO-K1. As to conditions: CHO-K1 cells, agonist mode. On the procedure:
Serotonin 5-HT2A In Vitro Cellular IPOne Agonism Assay. The 5-HT2A IPOne HTRF assay was performed at Epics Therapeutics S.A. (Belgium, FAST-0505I) using conventional methods. Briefly, CHO-K1 cells expressing human recombinant 5-HT2A receptor grown to mid-log phase in culture media without antibiotics were detached with PBS-EDTA, centrifuged, and resuspended in medium without antibiotics buffer. 20,000 cells were distributed in a 96 well plate and incubated overnight at 37° C. with 5% Co2.
For agonist testing, the medium was removed and 20 μl of assay buffer plus 20 μl of test compound or reference agonist were added in each well. The plate was incubated for 60 min. at 37° C. with 5% CO2.
(§1) After addition of the lysis buffer containing IP1-d2 and anti-IP1 cryptate detection reagents, plates were incubated 1-hour at room temperature, and fluorescence ratios were measured according to the manufacturer specification, with the HTRF kit.
A general note: In TR-FRET formats the signal depends on donor and acceptor labels being close together.

Assay [5] has as its target T1, 5-HT2A. Briefly: Serotonin 5-HT2A in vitro cellular IPOne antagonism assay (HTRF). On the set-up: host or cells: CHO-K1. As to conditions: CHO-K1 cells, reference agonist α-Me-5HT; read-out: 5-HT2A IPOne Antagonist Activity. It is filed as cell-based. As for the experimental part:
Serotonin 5-HT2A In Vitro Cellular IPOne Antagonism Assay. The 5-HT2A IPOne HTRF assay was performed at Epics Therapeutics S.A. (Belgium, FAST-O0505) in antagonism mode using conventional methods. Briefly, CHO-K1 cells expressing human recombinant 5-HT2A receptor grown to mid-log phase in culture media without antibiotics were detached with PBS-EDTA, centrifuged, and resuspended in medium without antibiotics buffer. 20,000 cells were distributed in a 96 well plate and incubated overnight at 37° C. with 5% Co2.
For antagonist testing, a reference agonist α-Me-5HT was added and fluorescence signal monitored for several minutes, followed by addition of 20 μl of assay buffer plus 20 μl of test compound or reference antagonist ketanserin, in each well. The plate was incubated for 60 min. at 37° C. with 5% CO2.
as §1

In assay [6] the target is T1, 5-HT2A. As to the kind of experiment: Serotonin 5-HT2A in vitro radioligand binding competition assay ([3H]-DOI). As to conditions: [3H]-DOI radiotracer, membrane extracts. On the set-up: purchased Epics Therapeutics S.A. (Belgium) FAST-0505B. On the procedure:
Serotonin 5-HT2A In Vitro Radioligand Binding Competition Assay. The 5-HT2A radioligand binding competition assay was performed at Epics Therapeutics S.A. (Belgium, FAST-0505B) using conventional methods. Briefly, competition binding was performed in duplicate in the wells of a 96 well plate (Master Block, Greiner, 786201) containing binding buffer (optimized for each receptor), membrane extracts (amount of protein/well optimized for each receptor), radiotracer [^3H]-DOI (final concentration optimized for each receptor) and test compound. Nonspecific binding was determined by co-incubation with 200-fold excess of cold competitor. The samples were incubated in a final volume of 0.1 ml at a temperature and for a duration optimized for each receptor and then filtered over filter plates. Filters were washed six times with 0.5 ml of ice-cold washing buffer (optimized for each receptor) and 50 μl of Microscint 20 (Packard) were added in each well. The plates were incubated 15 min on an orbital shaker and then counted with a TopCount™ for 1 min/well.

T1 sequence (P28223 whole entry): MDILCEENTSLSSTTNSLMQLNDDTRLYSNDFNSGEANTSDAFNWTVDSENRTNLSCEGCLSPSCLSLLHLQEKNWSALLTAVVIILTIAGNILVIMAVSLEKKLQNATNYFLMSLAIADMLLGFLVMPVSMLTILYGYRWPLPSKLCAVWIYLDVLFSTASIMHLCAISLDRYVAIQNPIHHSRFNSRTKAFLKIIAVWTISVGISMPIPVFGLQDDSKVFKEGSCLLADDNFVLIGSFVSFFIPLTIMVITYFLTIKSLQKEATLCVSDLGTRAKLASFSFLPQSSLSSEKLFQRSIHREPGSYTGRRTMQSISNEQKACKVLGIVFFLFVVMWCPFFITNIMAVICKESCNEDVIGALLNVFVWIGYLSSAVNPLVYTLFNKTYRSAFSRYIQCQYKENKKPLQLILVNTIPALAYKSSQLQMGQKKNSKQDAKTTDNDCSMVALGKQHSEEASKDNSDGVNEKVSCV

Turning to 5-MeO-DMT [Compound 5-MeO-DMT], the “head-twitch response (HTR)” value in assay [1] is reported as “robust, dose-dependent head-twitch response”. In addition, the “activation of the 5HT2A sensor assay in agonist mode” value (“activation of the 5HT2A sensor assay” below) in assay [2] is “activate the 5HT2A sensor assay in agonist mode”.
With 6-F-DET [Compound 6-F-DET], in assay [2], the “activation of the 5HT2A sensor assay” value is listed as “do not activate the 5HT2A sensor assay in agonist mode”. For the same compound, in assay [3], the “competition with 5-HT in the 5HT2A sensor assay in antagonist mode” value (shortened to “competition with 5-HT”) is reported as “can compete with 5HT binding to 5HT2A”.
Consider 6-MeO-DMT [Compound 6-MeO-DMT], for which the “head-twitch response (HTR)” value in assay [1] is on record as “does not produce a HTR”. In assay [2], the “activation of the 5HT2A sensor assay” value is recorded as “do not activate the 5HT2A sensor assay in agonist mode”. Besides, in assay [3], the “competition with 5-HT” value is recorded as “compete off 5-HT”.
In the case of `Cc1ccn2c(CC(C)N)ncc2c1` (centres unmarked) [Compound 9, 1-(7-methylimidazo[1,5-a]pyridin-3-yl)propan-2-amine], the EC50 (usually the midpoint of the concentration-response curve) in assay [4] lay within 1 to 10 µM. In addition, the IC50 is above 10 µM in assay [5] and 1 to 10 µM in assay [6].
In assay [4], `c1ccn2c(C3CCNC3)ncc2c1` (centres unmarked) [Compound 12, 3-(Pyrrolidin-3-yl)imidazo[1,5-a]pyridine] displayed an EC50 above 10 µM. For the same compound, the IC50 in assay [5] and in assay [6] was 1 to 10 µM in each case.
As to `c1ccn2c(CC3CCCN3)ncc2c1` (centres unmarked) [Compound 13, 3-(Pyrrolidin-2-ylmethyl)imidazo[1,5-a]pyridine], the EC50 in assay [4] is above 10 µM. For the same compound, the IC50 in assay [5] and in assay [6] was 1 to 10 µM throughout.
Turning to `CN(C)CCc1ncc2ccccn12` [Compound 14, 2-(Imidazo[1,5-a]pyridin-3-yl)-N,N-dimethylethan-1-amine], the EC50 in assay [4] was above 10 µM. The IC50 in assay [5] and in assay [6] was 1 to 10 µM each time.
Regarding `CC(Cc1ncc2ccccn12)N(C)C` (centres unmarked) [Compound 15, 1-(imidazo [1,5-a]pyridin-3-yl)-N,N-dimethylpropan-2-amine], the EC50 in assay [4] is above 10 µM. The IC50 in assay [5] and in assay [6] was 1 to 10 µM each time.
`CC(Cc1ncc2cc(F)ccn12)N(C)C` (centres unmarked) [Compound 17, 1-(7-fluoroimidazo[1,5-a]pyridin-3-yl)-N,N-dimethylpropan-2-amine] had an EC50 in assay [4] above 10 µM. Further, the IC50 in assay [5] and in assay [6] was 0.101 to 1 µM throughout.
In assay [4], `CN(C)C(C)(C)Cc1ncc2ccccn12` [Compound 19, 1-(imidazo [1,5-a]pyridin-3-yl)-N,N,2-trimethylpropan-2-amine] registered an EC50 above 10 µM. Besides, the IC50 in assay [5] and in assay [6] was 1 to 10 µM in each case.
Compound `CC(C)NC(C)Cc1ncc2ccccn12` (centres unmarked) [Compound 26, 1-(imidazo [1,5-a]pyridin-3-yl)-N-isopropylpropan-2-amine] had an EC50 in assay [4] above 10 µM. The IC50 in assay [5] and in assay [6] was 0.101 to 1 µM in each case.
Turning to `CC(Cc1ncc2ccccn12)N1CCCC1` (centres unmarked) [Compound 27, 3-(2-(pyrrolidin-1-yl)propyl)imidazo[1,5-a]pyridine], the EC50 in assay [4] is above 10 µM. In addition, the IC50 in assay [5] and in assay [6] was 1 to 10 µM in each case.
Regarding `C[C@H](Cc1ncc2ccccn12)N(C)C` [Compound 30, (R)-1-(imidazo[1,5-a]pyridin-3-yl)-N,N-dimethylpropan-2-amine], the EC50 in assay [4] was above 10 µM. Also, the IC50 lay in the range of 1 to 10 µM in assay [5] and 0.101 to 1 µM in assay [6].
`CN1CCCC1Cc1ncc2ccccn12` (centres unmarked) [Compound 31, 3-((1-Methylpyrrolidin-2-yl)methyl)imidazo[1,5-a]pyridine] showed an EC50 in assay [4] above 10 µM. The IC50 in assay [5] fell in the range of 0.101 to 1 µM; in assay [6] it was 1 to 10 µM.
Compound `CN1CCC(c2ncc3ccccn23)C1` (centres unmarked) [Compound 32, 3-(1-methylpyrrolidin-3-yl)imidazo[1,5-a]pyridine] returned an EC50 in assay [4] above 10 µM. Further, the results for the IC50 in assay [5] and in assay [6] were 1 to 10 µM and 0.101 to 1 µM, respectively.
As for `CN(C)CCc1ncn2ccccc12` [Compound 43, 2-(imidazo [1,5-a]pyridin-1-yl)-N,N-dimethylethan-1-amine], the EC50 in assay [4] was above 10 µM. The IC50 was in the range of 0.101 to 1 µM in assay [5] and 1 to 10 µM in assay [6].
The matching figures for `CC(Cc1ncn2ccccc12)N(C)C` (centres unmarked) [Compound 44, 1-(imidazo [1,5-a]pyridin-1-yl)-N,N-dimethylpropan-2-amine]: above 10 µM, 0.101 to 1 µM and 1 to 10 µM.
In the case of `CN(C)CCc1c[nH]c2ccccc12` [DMT, N,N-dimethyltryptamine], in assay [2], the “activation of the 5HT2A sensor assay” value is recorded as “activate the 5HT2A sensor assay in agonist mode”.
As for `O=C(c1ccc(F)cc1)C1CCN(CCn2c(=O)[nH]c3ccccc3c2=O)CC1` [Ketanserin], the “activation of the 5HT2A sensor assay” value in assay [2] was “do not activate the 5HT2A sensor assay in agonist mode”. Further, the “competition with 5-HT” value in assay [3] is recorded as “can compete with 5HT binding to 5HT2A”.
Consider BOL148, for which, in assay [2], the “activation of the 5HT2A sensor assay” value is “do not activate the 5HT2A sensor assay in agonist mode”. Moreover, in assay [3], the “competition with 5-HT” value is given as “can compete with 5HT binding to 5HT2A”.
For L-MDMA, in assay [2], the “activation of the 5HT2A sensor assay” value is “do not activate the 5HT2A sensor assay in agonist mode”.
For the compound R-MDMA, in assay [2], the “activation of the 5HT2A sensor assay” value was “do not activate the 5HT2A sensor assay in agonist mode”.
